Series [1] can be described thus: wn = mass fraction of the nth substance listed. Conditions: 298.15 K, 100 kPa, Liquid, Vibrating tube method.
The nature of series [2]: refractive index (Na D-line) (dimensionless); wn = mass fraction of the nth substance listed. Conditions: 298.15 K, 100 kPa, Liquid, Standard Abbe refractometry.

The structures appear in SMILES notation. Numbers after ± are expanded uncertainties.

The mass density is mass per unit of volume. In general, refractive index refers to the speed of light in vacuum divided by its phase velocity in the sample. Turning to `O=B[O-].[Na+]` [sodium metaborate] + O, the mass density in series [1] (w1 = 0.2259) came out at 1280.56 ± 12 kg/m3. Further, the refractive index in series [2] (w1 = 0.2259) was 1.38898 ± 0.002.
With `O=B[O-].[K+]` [potassium metaborate] + O, the mass density in series [1] (w1 = 0.4388) is on record as 1539.08 ± 12 kg/m3. In addition, the refractive index in series [2] (w1 = 0.4388) was 1.42543 ± 0.002.
Regarding `O=B[O-].[Li+]` [lithium metaborate] + O, the mass density in series [1] (w1 = 0.0336) stood at 1035.63 ± 12 kg/m3. Moreover, the refractive index in series [2] (w1 = 0.0336) came to 1.3448 ± 0.002.

(Values after the NIST ThermoML archive (doi:10.1021/acs.jced.9b00218).)
